Experimental data taken from EP0663826B1, “AMINO ACIDS CONTAINING PARENTERAL FORMULATIONS FOR THE TREATMENT OF HYPOTENSION AND RELATED PATHOLOGIES” (BOARD OF REGENTS THE UNIVERSITY OF TEXAS SYSTEM, priority 1991, dated 1993).

Tested on: IL-1-Induced Hypotension in Dogs
Assay: IL-1-induced hypotension in dogs
Format: in vivo
Conditions: for MAP after arginine administration: then L-arginine 400 mg/kg
Description: • FIGURE 1 - Reversal of hypotension associated with the administration of IL-1 to dogs. The tracing shown is a representative experiment that was repeated four times. Each dog was anesthetized and […] as described herein, and baseline cardiovascular data were monitored for 30 minutes. IL-1 was dissolved in phosphate-buffered saline (pH 7.4) containing 1 mg/ml of dog albumin, and the resulting solution was infused intravenously for three minutes to deliver a dose of 50 µg/kg. MAP was continuously monitored; when a stable nadir was reached and maintained for more than 10 minutes or when MAP dropped below 50 mm Hg, NAA (20 mg/kg in 10 ml phosphate-buffered saline) was administered by intravenous infusion for 30 seconds. Sixty minutes after MAP was restored to baseline or higher values, L-arginine (400 mg/kg in 20 ml phosphate-buffered saline) was administered by slow intravenous infusion for 5 minutes. Anesthetized dogs given IL-1 (50 µg/kg) developed a progressive, moderately severe hypotension, with MAP decreasing from a baseline of 111 +/- 7 mm Hg to 80 +/- 2 mm Hg within about 3 hours. Hypotension was rapidly reversed by the intravenous administration of a single bolus dose of NAA (20 mg/kg, 88 umol/kg), with MAP increasing by from 46 +/- 9 mm Hg (58%_ to 125 +/- 8 mm Hg. • FIGURES 2A, 2B, 2C - Inhibition of IL-1-activated NO· production by N^ω-substituted arginine analogues. Figure 2A: Comparison of nitrite synthesis inhibition in smooth muscle cells by the L-isomers of NAA, NMA, and NNA and by the D-isomer of NMA. Figure 2B: Concentration dependence of nitrite synthesis inhibition in smooth muscle cells by NAA as a function of different L-arginine concentration in the culture medium. Confluent monolayers of smooth muscle cells in 96-well microtiter plates were treated with a combination of 100 ng/ml IL-1 and 50 ng/ml IFN-γ for 24 hours. Cells were then washed with Hanks' balanced salt solution, and fresh medium containing the indicated concentration of L-arginine was added. Points indicate means ± SD of nitrite production, expressed as percent of control, during a 16-hour exposure to arginine analogues (n = 3-4). Figure 2C: Effect of NAA on smooth muscle cell NO· synthase. Cytosol from cytokine-induced smooth muscle cells (∼2 µg protein) was incubated with 1 mM L-arginine, 0.5 mM NADPH, 1 mM dithiothreitol, 10 µM flavin-adenine dinucleotide, 10 µM tetrahydrobiopterin, and 0.1 U/ml dihydropteridine reductase in a total volume of 100 µL. The time course of Fe^2+-myoglobin oxidation was measured in the absence (control) or presence of 300 µM NAA (+NAA). […] FIGURE A: Time course of nitrite synthesis elicited by 40 ng/mL IL-1 alone (open circles) and by IL-1 in the presence of 50 ng/ml IFN-γ (open triangles). […] Inclusion of IL-1 receptor antagonist (40 µg/mL; filled symbols) in the culture medium inhibited nitrite production stimulated by both IL-1 and IL-1 plus IFN-γ. FIGURE B: IL-1 concentration dependence for smooth muscle cell nitrite production. Data points indicate nitrite produced during a 29-hour incubation with the indicated concentration of IL-1 alone (open circles) or in the presence of IL-1 plus 50 ng/mL IFN-γ (open triangles). All values are means ± SD for nitrite production by confluent smooth muscle cell monolayers grown in 96-well microtiter plates (60-80 X 10^3 cells per well; n = 3-4).
Experiments were conducted on healthy mongrel dogs that were free of microfilaria and weighed 25-28 kg each. […]

`N=C(N)NCCC[C@H](N)C(=O)O` [L-arginine] was tested, and the “average decrease in systemic vascular resistance following arginine” value (IL-1-treated animals given NAA, then arginine) was 61%, the “MAP after arginine administration” value (IL-1-treated dogs given NAA) was 66 ± 27 mm Hg and the “MAP after arginine administration” value (control dogs given NAA) was “essentially at baseline levels”.
